From ChEMBL document CHEMBL1914417 (Bioorg Med Chem Lett, 2011)

Assays:
[1] = target: T1, Muscarinic acetylcholine receptor M4 (Rattus norvegicus, UniProt P08485); test: Agonist activity at rat muscarinic M4 receptor expressed in CHO cells; assay type: functional, cell-based
T1 sequence (P08485 whole entry): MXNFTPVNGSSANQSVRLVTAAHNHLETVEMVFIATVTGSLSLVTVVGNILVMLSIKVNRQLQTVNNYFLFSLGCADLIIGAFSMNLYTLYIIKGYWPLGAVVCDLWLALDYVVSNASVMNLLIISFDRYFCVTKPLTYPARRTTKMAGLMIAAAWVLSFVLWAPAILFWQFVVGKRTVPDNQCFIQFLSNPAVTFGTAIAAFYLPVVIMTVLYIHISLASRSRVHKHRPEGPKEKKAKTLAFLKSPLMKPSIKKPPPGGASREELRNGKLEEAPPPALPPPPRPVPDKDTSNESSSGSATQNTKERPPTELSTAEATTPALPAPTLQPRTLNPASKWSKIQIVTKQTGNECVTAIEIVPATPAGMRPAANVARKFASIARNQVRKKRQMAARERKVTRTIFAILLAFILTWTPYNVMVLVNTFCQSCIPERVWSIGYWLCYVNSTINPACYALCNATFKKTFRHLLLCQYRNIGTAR

[2] = target: T2, Muscarinic acetylcholine receptor M1 (Homo sapiens, UniProt P11229); test: Agonist activity at human recombinant muscarinic M1 receptor by HTS cell based assay; assay type: functional
T2 sequence (P11229 whole entry): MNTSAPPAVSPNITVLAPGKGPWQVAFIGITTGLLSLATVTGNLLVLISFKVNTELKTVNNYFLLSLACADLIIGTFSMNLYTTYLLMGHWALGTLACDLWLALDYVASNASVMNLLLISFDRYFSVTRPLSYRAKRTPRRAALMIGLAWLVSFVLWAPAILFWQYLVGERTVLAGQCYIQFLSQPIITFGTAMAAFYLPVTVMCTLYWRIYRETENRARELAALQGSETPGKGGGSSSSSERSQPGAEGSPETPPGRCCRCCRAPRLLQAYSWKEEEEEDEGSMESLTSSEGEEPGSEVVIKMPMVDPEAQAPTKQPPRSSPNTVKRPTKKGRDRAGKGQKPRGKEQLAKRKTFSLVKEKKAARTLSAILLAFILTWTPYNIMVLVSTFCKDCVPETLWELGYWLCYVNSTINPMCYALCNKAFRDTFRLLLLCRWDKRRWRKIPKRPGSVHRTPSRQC

[3] = target: T3, Muscarinic acetylcholine receptor M2 (Rattus norvegicus, UniProt P10980); test: Agonist activity at rat recombinant muscarinic M2 receptor by HTS cell based assay; assay type: functional
T3 sequence (P10980 whole entry): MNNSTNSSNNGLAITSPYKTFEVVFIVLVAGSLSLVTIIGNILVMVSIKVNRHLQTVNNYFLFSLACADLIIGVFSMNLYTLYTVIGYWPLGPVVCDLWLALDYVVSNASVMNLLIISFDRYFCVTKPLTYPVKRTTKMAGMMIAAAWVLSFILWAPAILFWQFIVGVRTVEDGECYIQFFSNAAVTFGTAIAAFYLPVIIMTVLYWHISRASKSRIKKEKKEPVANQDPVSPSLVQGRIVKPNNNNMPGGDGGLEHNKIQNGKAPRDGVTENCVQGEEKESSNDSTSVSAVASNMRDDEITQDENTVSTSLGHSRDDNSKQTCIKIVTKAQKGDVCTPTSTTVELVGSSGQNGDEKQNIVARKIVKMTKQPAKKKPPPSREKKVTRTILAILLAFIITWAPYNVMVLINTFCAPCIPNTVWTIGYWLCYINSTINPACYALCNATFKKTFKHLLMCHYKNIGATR

[4] = target: T4, Muscarinic acetylcholine receptor M5 (Rattus norvegicus, UniProt P08911); test: Agonist activity at rat recombinant muscarinic M5 receptor by HTS cell based assay; assay type: functional
T4 sequence (P08911 whole entry): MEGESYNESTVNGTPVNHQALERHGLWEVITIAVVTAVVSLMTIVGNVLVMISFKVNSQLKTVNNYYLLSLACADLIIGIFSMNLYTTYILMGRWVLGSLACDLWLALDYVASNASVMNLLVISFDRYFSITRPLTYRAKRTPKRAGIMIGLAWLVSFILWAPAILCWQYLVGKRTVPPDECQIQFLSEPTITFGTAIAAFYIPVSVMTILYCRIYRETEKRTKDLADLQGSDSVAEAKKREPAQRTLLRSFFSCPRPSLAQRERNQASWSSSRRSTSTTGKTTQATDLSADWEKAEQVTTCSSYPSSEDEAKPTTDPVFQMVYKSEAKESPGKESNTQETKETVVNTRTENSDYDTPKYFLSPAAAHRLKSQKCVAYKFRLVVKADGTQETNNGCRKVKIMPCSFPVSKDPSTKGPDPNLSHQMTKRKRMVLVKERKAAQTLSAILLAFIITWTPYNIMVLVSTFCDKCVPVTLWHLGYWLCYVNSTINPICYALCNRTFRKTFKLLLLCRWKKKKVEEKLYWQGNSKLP

[5] = target: T5, Muscarinic acetylcholine receptor M2 (Homo sapiens, UniProt P08172); test: Agonist activity at human recombinant muscarinic M2 receptor by HTS cell based assay; assay type: functional
T5 sequence (P08172 whole entry): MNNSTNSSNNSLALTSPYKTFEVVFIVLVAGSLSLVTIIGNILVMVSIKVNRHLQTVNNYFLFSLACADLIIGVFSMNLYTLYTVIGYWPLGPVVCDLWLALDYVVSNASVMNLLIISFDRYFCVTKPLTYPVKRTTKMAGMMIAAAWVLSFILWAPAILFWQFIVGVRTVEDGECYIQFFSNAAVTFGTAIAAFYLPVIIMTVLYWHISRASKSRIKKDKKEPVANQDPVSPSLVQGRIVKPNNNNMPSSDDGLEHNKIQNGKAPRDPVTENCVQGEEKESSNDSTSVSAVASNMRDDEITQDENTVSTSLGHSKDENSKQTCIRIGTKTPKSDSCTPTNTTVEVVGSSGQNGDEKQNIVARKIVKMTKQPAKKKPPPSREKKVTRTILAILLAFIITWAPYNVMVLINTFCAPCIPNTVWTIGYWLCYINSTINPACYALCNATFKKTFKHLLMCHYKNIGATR

[6] = target: T6, Muscarinic acetylcholine receptor M4 (Homo sapiens, UniProt P08173); test: Agonist activity at human recombinant muscarinic M4 receptor by HTS cell based assay; assay type: functional
T6 sequence (P08173 whole entry): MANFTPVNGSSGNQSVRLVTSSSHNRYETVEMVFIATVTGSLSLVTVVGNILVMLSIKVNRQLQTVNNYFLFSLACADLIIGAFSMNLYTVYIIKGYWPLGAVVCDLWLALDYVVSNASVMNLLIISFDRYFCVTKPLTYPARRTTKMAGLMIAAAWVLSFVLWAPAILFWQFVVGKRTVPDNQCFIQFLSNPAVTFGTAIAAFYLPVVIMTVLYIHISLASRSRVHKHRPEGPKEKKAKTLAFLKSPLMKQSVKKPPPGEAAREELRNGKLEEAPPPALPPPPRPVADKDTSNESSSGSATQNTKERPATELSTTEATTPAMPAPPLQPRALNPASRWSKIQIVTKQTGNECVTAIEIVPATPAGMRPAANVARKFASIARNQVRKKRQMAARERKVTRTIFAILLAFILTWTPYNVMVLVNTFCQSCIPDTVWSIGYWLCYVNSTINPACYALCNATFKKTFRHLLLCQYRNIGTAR

| SMILES | EC50 [1] | EC50 [2] | EC50 [3] | EC50 [4] | EC50 [5] | EC50 [6] |
| --- | --- | --- | --- | --- | --- | --- |
| CCOC(=O)N1CCC(N2CCC[C@@H](NC(=O)c3ccccc3C)C2)CC1 | > 30 µM | 1.3 µM | > 30 µM | > 30 µM | > 30 µM | > 30 µM |
| CCOC(=O)N1CCC(NCCNC(=O)c2ccccc2C)CC1 | > 30 µM | 2.3 µM | > 30 µM | > 30 µM | > 30 µM | > 30 µM |
